In US9296709B2, “Manufacture of 2-(5-bromo-4-(4-cyclopropylnaphthalen-1-yl)-4H-1,2,4-triazol-3-ylthio)acetic acid” (ARDEA BIOSCIENCES, INC., priority 2012, dated 2016):
≈ marks a conversion by molar mass, not a printed value.

What was measured:
[1] = Solid held in equilibrium with its saturated acetone solution at 60° C.; assay type: physicochemical; conditions: 60° C. for 6 days
[2] = Gravimetric vapor sorption (GVS) study; assay type: physicochemical
Excerpt: FIG. 12 illustrates a GVS study of form 1 and form 2. […] This property of decreased hygroscopicity greatly aids in the preparation of solid pharmaceutical dosage forms.

[3] = Solubility in acetate buffer (25 mM, pH 5), assayed by HPLC; assay type: physicochemical; conditions: acetate buffer 25 mM pH 5, 25° C.; for solubility at 1 day: acetate buffer, 25 °C, pH 5, aqueous buffer, thermodynamic from solid
Method: (§1) Form 1 (˜25 mg) and acetate buffer (25 mM, pH 5, 4 mL), prepared with and without sodium chloride (ionic strength adjusted to =0.1M), were placed in a glass vial which was sealed and placed on a laboratory rotator in a 25° C. incubator. After 1, 5, and 7 days the samples were filtered and assayed by HPLC.
as §1, with “Form 2” for “Form 1”

[4] = Drug substance stability of packaged polymorph under accelerated / long term storage conditions; conditions: for degradation of packaged drug substance: double LDPE bag, heat sealed foil bag, HDPE container
Method: Form 2 of 2-(5-bromo-4-(4-cyclopropylnaphthalen-1-yl)-4H-1,2,4-triazol-3-ylthio)acetate was tested under various conditions to determine drug substance stability. […] Packaging was in a double low density polyethylene plastic bags inside a HDPE container.

Row | outcome of equilibration with saturated acetone solution [1] | adsorbed at high humidity (GVS) [2] [% w/w] | solubility at 1 day ([3]; Form 1, NaCl (I = 0.1), Day 1) [µg/mL] | solubility ([3]; Form 2, NaCl (I = 0.1), Day5, sample pH 4.83) | solubility ([3]; Form 2, NaCl (I = 0.1), Day 7, sample pH 4.85) | solubility ([3]; Form 2, No NaCl, Day 1, sample pH 4.91) | solubility ([3]; Form 2, No NaCl, Day5, sample pH 4.73) | solubility ([3]; Form 2, No NaCl, Day 7, sample pH 4.79) | solubility at 1 day ([3]; Form 2, NaCl (I = 0.1), Day 1) [µg/mL] | degradation of packaged drug substance ([4]; 6 months, accelerated conditions 40° C.-75% RH) | degradation of packaged drug substance ([4]; 12 months, long term conditions 25° C.-60% RH) | Structure (SMILES) | stability in comparison to the amorphous solid state form of the carboxylic acid [4]
1 | decomposition | < 0.2 | 300 (≈ 741 µM) |  |  |  |  |  |  |  |  | O=C(O)CSc1nnc(Br)n1-c1ccc(C2CC2)c2ccccc12 [Form 1, 2-(5-bromo-4-(4-cyclopropylnaphthalen-1-yl)-4H-1,2,4-triazol-3-ylthio)acetic acid] | 
2 |  | < 0.1 |  | 0.2441 (pH 4.83) mg/mL | 0.2157 (pH 4.85) mg/mL | 0.1867 (pH 4.91) mg/mL | 0.1957 (pH 4.73) mg/mL | 0.1337 (pH 4.79) mg/mL | 219 (≈ 542 µM) |  |  | O=C(O)CSc1nnc(Br)n1-c1ccc(C2CC2)c2ccccc12 [Form 2, 2-(5-bromo-4-(4-cyclopropylnaphthalen-1-yl)-4H-1,2,4-triazol-3-ylthio)acetic acid] | 
3 |  |  |  |  |  |  |  |  |  | No degradation | no degradation | O=C([O-])CSc1nnc(Br)n1-c1ccc(C2CC2)c2ccccc12.[Na+] [Form A, sodium 2-(5-bromo-4-(4-cyclopropylnaphthalen-1-yl)-4H-1,2,4-triazol-3-ylthio)acetate] | improvement over the solid state amorphous free acid
